Non-standard residues stand in square brackets, D forms with d. Residues, ends and D or L forms follow the SMILES beside them. Cit = NC(=O)NCCC[C@H](N)C(=O)O
Experiments:
[1] = system: cultured fibroblasts; test: Test 1: ATP dosage, energetic metabolism of cultured fibroblasts; type: cell-based; conditions: 1% active ingredient; fibroblasts 10^5 cells/ml, 2% fetal calf serum; control 26.7 +/- 5.2
Experimental: Test 1: influence of analogs of the citrullinylarginine natural dipeptide on the energetic metabolism of cultured fibroblasts through a triphosphate adenosine (ATP) dosage. Comparison with the purified natural dipeptide.
The fibroblasts cells are cultivated and seeded at a rate of 10^5 cells/ml in the presence of a growth factor-deprived medium (2% fetal calf serum).
On each cell suspension, the ATP quantity is measured by photometry, by establishing the decrease of absorbance at 340 nm according to following specific equations: • ATP+3-phosphoglycérate---->ADP+1,3-diphosphoglycérate • 1,3-diphosphoglycérate+NADH---->glycéraldéhyde-3-P+NAD+P

[2] = system: human fibroblast cell line; test: Test 2: cell proliferation (cytostimulation), neutral red colorimetric test; type: cell-based; conditions: human fibroblasts, 2% fetal calf serum, OD 540 nm
Experimental: Test 2: evidence of the cytostimulating properties of the citrullinylarginine natural dipeptide analogs.
The test was performed on a human fibroblast cell line maintained in a culture medium filed with 2% fetal calf serum.
The assessment of the cell proliferation is carried out through a neutral red colorimetric test (Borenfreund E. and al. (1984), Toxicol. Lett., vol.24, pp.119). Cell growth variation is then obtained by measuring optical density (OD) at 540 nm, following the specific equation: […]

Compound | ATP quantity [1] | % stimulation ([2]; 0.016% active) | % stimulation ([2]; 0.031% active) | % stimulation ([2]; 0.063% active) | % stimulation ([2]; 0.125% active) | % stimulation ([2]; 0.5% active)
CC(=O)N[C@@H](CCCNC(N)=O)C(=O)N[C@@H](CCCNC(=N)N)C(=O)O [NAc-Cit-Arg, N-acetyl-L-citrullinyl-L-arginine] (Ac-[Cit]-Arg-OH) | 90.7 +/− 6.5 nM/mg proteins | 5% | 26% | 34% | 40% | 45%
N=C(N)NCCC[C@H](NC(=O)[C@@H](N)CCCNC(N)=O)C(=O)O [purified Cit-Arg, citrullinylarginine] (H-[Cit]-Arg-OH) | 88.62 +/− 8 nM/mg proteins | 2% | 25% | 30% | 32.5% | 36%
